{"source": "patent US7700606B2", "about": "“Imidazole amines as inhibitors of β-secretase” (Wyeth LLC, priority 2006, dated 2010)", "key": {"[1]": {"target": "T1, human BACE2 (Homo sapiens, UniProt Q9Y5Z0)", "T1 sequence (Q9Y5Z0 63-518)": "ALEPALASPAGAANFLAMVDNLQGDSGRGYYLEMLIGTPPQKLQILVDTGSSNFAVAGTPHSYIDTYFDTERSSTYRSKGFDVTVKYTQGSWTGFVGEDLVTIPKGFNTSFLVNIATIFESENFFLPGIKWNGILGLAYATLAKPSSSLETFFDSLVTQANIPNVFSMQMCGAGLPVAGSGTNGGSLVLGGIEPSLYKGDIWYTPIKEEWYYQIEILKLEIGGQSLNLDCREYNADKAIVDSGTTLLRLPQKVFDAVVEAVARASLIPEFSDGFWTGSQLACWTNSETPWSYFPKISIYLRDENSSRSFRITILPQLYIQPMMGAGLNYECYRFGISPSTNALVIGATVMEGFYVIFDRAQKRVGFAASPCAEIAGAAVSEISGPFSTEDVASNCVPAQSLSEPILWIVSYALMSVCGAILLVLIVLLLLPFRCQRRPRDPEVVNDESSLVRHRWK", "assay": "Fluorescent kinetic assay for human recombinant BACE 2 (WABC-6 peptide substrate)", "type": "biochemical", "conditions": "for IC50: 1.5 nM enzyme, 25 μM substrate, pH 4.5, room temperature", "protocol": "(§1) Evaluation of the Enzyme Activity of Test Compounds and the Inhibition of hBACE1, MuBACE1 and hBACE2 by Test Compounds\nAssay Conditions: 10 nM human BACE1 (or 10 nM Murine BACE1, 1.5 nM human BACE2) 25 μM substrate (WABC-6, MW 1549.6, from AnaSpec); final buffer conditions: 50 mM Na-Acetate, pH 4.5, 0.05% CHAPS, 25% PBS; temperature: room temperature; reagent information: Na-Acetate: Aldrich, Cat.#24,124-5 CHAPS: Research Organics, Cat. #1304C 1× PBS: Mediatech (Cellgro), Cat#21-031-CV; peptide substrate AbzSEVNLDAEFRDpa: AnaSpec, Peptide Name: WABC-6; determination of stock substrate (AbzSEVNLDAEFRDpa) concentration: a 25 mM stock solution in dimethyl sulfoxide (DMSO) is prepared using the peptide weight and MW and diluted to 25 μM. The concentration is determined by absorbance at 354 nm using an extinction coefficient ε of 18172 M^−1 cm^−1, The substrate stock is stored in small aliquots at −80° C. [Substrate Stock]=ABS^354 nm*10^6/18172 (in mM)\nCalculation of % Inhibition: % Inhibition=100*(1−vi/v0) • (vi=substrate cleavage rate in the presence of inhibitor, • v0=substrate cleavage rate in the absence of inhibitor) IC50 Determination: % Inhibition=[(B*IC50^n)+(100*I0^n)]/(IC50^n+I0^n), Fluorescent Kinetic Assay for Human Recombinant BACE 2\nThis assay is used to provide kinetic and selectivity parameters for the analyses of the tested compounds.\nMaterials and methods: final assay conditions: 10 nM human BACE1 (or 10 nM Murine BACE1, 1.5 nM human BACE2) 25 μM Substrate (WABC-6, MW 1549.6, from AnaSpec). Final buffer conditions: 50 mM Na-Acetate, pH 4.5, 0.05% CHAPS, 25% PBS. Temperature: room temperature. Reagent Information: Na-Acetate: Aldrich, Cat.#24,124-5 CHAPS: Research Organics, Cat. #1304C 1× PBS: Mediatech (Cellgro), Cat#21-031-CV Peptide Substrate AbzSEVNLDAEFRDpa: AnaSpec, Peptide Name: WABC-6\nDetermination of stock substrate (AbzSEVNLDAEFRDpa) concentration: A 25 mM stock solution in DMSO is prepared using the peptide weight and MW, and diluted to 25 μM. The concentration is determined by absorbance at 354 nm using an extinction coefficient ε of 18172 M^−1cm^−1. The substrate stock is stored in small aliquots at −80° C. [Substrate Stock]=ABS^354 nm*10^6/18172 (in mM)\nDetermination of stock enzyme concentration: The stock concentration of each enzyme is determined by ABS at 280 nm using ε of 64150 M^−1cm^−1 for hBACE1 and MuBACE1, 62870 M^−1cm^−1 for hBACE2 in 6 M guanidinium hydrochloride (from Research Organics, Cat. #5134G-2), pH 6. (The extinction coefficient ε^280 nm for each enzyme is calculated based on known amino acid composition and published extinction coefficients for Trp ([…]) and Tyr ([…]) residues (Anal. Biochem. 182, 319-326).)\nDilution and Mixing Steps: Total Reaction Volume: 100 μL • 1. 2× inhibitor dilutions in buffer A (66.7 mM Na-Acetate, pH 4.5, 0.0667% CHAPS) are prepared, • 2. 4× enzyme dilution in buffer A (66.7 mM Na-Acetate, pH 4.5, 0.0667% CHAPS) are prepared, • 3. 100 μM substrate dilution in 1× PBS, 50 μL 2× Inhibitor and 25 μL 100 μM substrate are added to each well of 96-well plate (from DYNEX Technologies, VWR #: 11311-046), then immediately 25 μL 4× enzyme is added to the inhibitor and substrate mixer and the fluorescence readings are initiated.\nFluorescence Readings: Readings at λex 320 nm, λem 420 nm are taken every 40-sec for 30 min at room temperature and to determine the linear slope for substrate cleavage rate (vi).\nAnalysis of calculation of % inhibition: % Inhibition=100*(1−vi/v0) • vi=substrate cleavage rate in the presence of inhibitor, • v0=substrate cleavage rate in the absence of inhibitor) • IC50 Determination: % Inhibition=((B*IC50^n)+(100*I0^n))/(IC50^n+I0^n),\nUnless otherwise noted, the IC50 value represents the value obtained at […]."}, "[2]": {"target": "human BACE1 (Homo sapiens, UniProt P56817)", "sequence (P56817 46-501)": "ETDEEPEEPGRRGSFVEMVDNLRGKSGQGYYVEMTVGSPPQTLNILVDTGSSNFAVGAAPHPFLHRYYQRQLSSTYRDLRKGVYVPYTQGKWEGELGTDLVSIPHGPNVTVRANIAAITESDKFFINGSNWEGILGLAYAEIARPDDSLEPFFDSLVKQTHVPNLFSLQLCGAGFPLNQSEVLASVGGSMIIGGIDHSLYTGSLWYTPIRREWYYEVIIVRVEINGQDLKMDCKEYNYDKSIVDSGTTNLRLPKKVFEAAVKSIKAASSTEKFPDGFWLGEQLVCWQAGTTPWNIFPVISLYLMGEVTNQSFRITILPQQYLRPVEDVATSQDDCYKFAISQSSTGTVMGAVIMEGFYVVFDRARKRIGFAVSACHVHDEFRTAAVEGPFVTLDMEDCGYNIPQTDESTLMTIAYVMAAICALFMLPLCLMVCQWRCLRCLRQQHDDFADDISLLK", "assay": "Fluorescent kinetic enzyme assay, inhibition of BACE1 (WABC-6 peptide substrate)", "type": "biochemical", "conditions": "10 nM enzyme, 25 μM substrate, pH 4.5, room temperature", "protocol": "as §1\nDilution and mixing steps: total reaction volume: 100 μL • 1. […] 100 μM substrate dilution in 1× PBS is prepared, • 4.\nFluorescence Readings: Readings at λex 320 nm and λem 420 nm are taken every 40-sec for 30 min at room temperature to determine the linear slope for substrate cleavage rate (vi)."}}, "data": [{"smiles": "NC1=NC(c2ccncc2)(c2cccc(-c3cccnc3F)c2)C2=NCCCN12", "note": "(stereo not drawn) [Example 1, 8-[3-(2-Fluoropyridin-3-yl)phenyl]-8-pyridin-4-yl-2,3,4,8-tetrahydroimidazo[1,5-a]pyrimidin-6-amine]", "values": [{"measurement": "melting point", "value": "125 to 131", "unit": "°C"}, {"measurement": "inhibition at 25 µM", "setting": "[1]", "value": 51, "unit": "%"}, {"measurement": "IC50", "setting": "[2]", "value": 520, "unit": "nM"}]}, {"smiles": "CCc1cc(C2(c3cccc(-c4cccnc4F)c3)N=C(N)N3CCCN=C32)cc(CC)n1", "note": "(stereo not drawn) [Example 2, 8-(2,6-Diethylpyridin-4-yl)-8-[3-(2-fluoropyridin-3-yl)phenyl]-2,3,4,8-tetrahydroimidazo[1,5-a]pyrimidin-6-amine]", "values": [{"measurement": "melting point", "value": "174 to 176", "unit": "°C"}, {"measurement": "inhibition at 25 µM", "setting": "[1]", "value": 38, "unit": "%"}, {"measurement": "IC50", "setting": "[2]", "value": 10, "unit": "nM"}]}, {"smiles": "CCn1cc(C2(c3cccc(-c4cccnc4F)c3)N=C(N)N3CCCN=C32)cn1", "note": "(stereo not drawn) [Example 3, 8-(1-Ethyl-1H-pyrazol-4-yl)-8-[3-(2-fluoropyridin-3-yl)phenyl]-2,3,4,8-tetrahydroimidazo[1,5-a]pyrimidin-6-amine]", "values": [{"measurement": "melting point", "value": "91 to 115", "unit": "°C"}, {"measurement": "IC50", "setting": "[1]", "value": 3520, "unit": "nM"}, {"measurement": "IC50", "setting": "[2]", "value": 90, "unit": "nM"}]}, {"smiles": "NC1=NC(c2cccc(-c3cccnc3F)c2)(c2cnn(CC(F)(F)F)c2)C2=NCCCN12", "note": "(stereo not drawn) [Example 4, 8-[3-(2-Fluoropyridin-3-yl)phenyl]-8-[1-(2,2,2-trifluoroethyl)-1H-pyrazol-4-yl]-2,3,4,8-tetrahydroimidazo[1,5-a]pyrimidin-6-amine]", "values": [{"measurement": "melting point", "value": "106 to 116", "unit": "°C"}, {"measurement": "IC50", "setting": "[1]", "value": 5120, "unit": "nM"}, {"measurement": "IC50", "setting": "[2]", "value": 80, "unit": "nM"}]}, {"smiles": "NC1=NC(c2ccc(OC(F)(F)F)cc2)(c2cccc(-c3cccnc3F)c2)C2=NOCCN12", "note": "(stereo not drawn) [Example 5, 8-[3-(2-Fluoropyridin-3-yl)phenyl]-8-[4-(trifluoromethoxy)-phenyl]-3,4-dihydro-8H-imidazo[5,1-c][1,2,4]oxadiazin-6-amine]", "values": [{"measurement": "melting point", "value": "102 to 117", "unit": "°C"}, {"measurement": "IC50", "setting": "[1]", "value": 2020, "unit": "nM"}, {"measurement": "IC50", "setting": "[2]", "value": 30, "unit": "nM"}]}, {"smiles": "NC1=NC(c2ccc(OC(F)(F)F)cc2)(c2cccc(-c3cncc(F)c3)c2)C2=NCCON12", "note": "(stereo not drawn) [Example 6, 8-[3-(5-Fluoropyridin-3-yl)phenyl]-8-[4-(trifluoromethoxy)phenyl]-2,8-dihydro-3H-imidazo[1,5-b][1,2,4]oxadiazin-6-amine]", "values": [{"measurement": "melting point", "value": "120 to 135", "unit": "°C"}, {"measurement": "IC50", "setting": "[1]", "value": 1190, "unit": "nM"}, {"measurement": "IC50", "setting": "[2]", "value": 50, "unit": "nM"}]}]}
